Assay results published in patent publication US20240270762A1, “PENICILLIN-BINDING PROTEIN INHIBITORS” (priority 2021, published 2024).

Columns and labels:
A. baumannii PBP1a = molecular target: T1, A. baumannii PBP1a (Acinetobacter baumannii, UniProt A0ABX6CK30); experiment: Bocillin-FL competition binding via gel filtration, A. baumannii PBP1a; details: competition binding assay using Bocillin-FL via gel filtration; read-out: A. baumannii PBP1a Potency
T1 sequence (A0ABX6CK30 1-851): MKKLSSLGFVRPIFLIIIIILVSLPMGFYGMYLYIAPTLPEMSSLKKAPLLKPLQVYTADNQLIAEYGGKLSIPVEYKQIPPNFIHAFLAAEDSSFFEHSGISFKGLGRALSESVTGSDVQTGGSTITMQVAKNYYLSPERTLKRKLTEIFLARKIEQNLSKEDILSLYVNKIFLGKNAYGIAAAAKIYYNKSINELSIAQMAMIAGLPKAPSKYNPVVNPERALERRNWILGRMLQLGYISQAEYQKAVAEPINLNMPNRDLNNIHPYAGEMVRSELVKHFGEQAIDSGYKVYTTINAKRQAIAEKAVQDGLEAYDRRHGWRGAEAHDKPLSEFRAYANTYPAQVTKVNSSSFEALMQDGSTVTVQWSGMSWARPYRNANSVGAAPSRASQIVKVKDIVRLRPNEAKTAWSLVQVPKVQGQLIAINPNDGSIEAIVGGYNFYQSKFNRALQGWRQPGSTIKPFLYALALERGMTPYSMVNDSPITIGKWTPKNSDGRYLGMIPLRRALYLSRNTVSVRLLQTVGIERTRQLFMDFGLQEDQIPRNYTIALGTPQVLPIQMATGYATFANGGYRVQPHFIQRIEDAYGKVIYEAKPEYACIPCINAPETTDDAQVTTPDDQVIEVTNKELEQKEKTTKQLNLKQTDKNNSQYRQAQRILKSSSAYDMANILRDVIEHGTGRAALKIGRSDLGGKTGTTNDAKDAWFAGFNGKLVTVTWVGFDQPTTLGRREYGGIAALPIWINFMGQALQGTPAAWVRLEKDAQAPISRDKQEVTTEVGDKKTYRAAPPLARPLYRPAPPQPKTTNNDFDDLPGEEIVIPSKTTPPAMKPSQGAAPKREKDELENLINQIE
Procedure, shortened: (§1)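 Enzyme pre-incubated with increasing inhibitor concentrations, then Bocillin-FL added for 15 min further incubation. Bocillin-FL-bound PBP separated by gel filtration and fluorescence read. EC50 from fitting fraction PBP bound vs inhibitor concentration to a Hill-type equation (ymin, ymax, n).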

A. baumannii PBP2 = A. baumannii PBP2 (Acinetobacter baumannii, UniProt D0C8Z9); experiment: Bocillin-FL competition binding via gel filtration, A. baumannii PBP2
Procedure, shortened: as §1

B. pseudomallei Bp82 = experiment: microbe, parasite or virus in culture; type: cell-based; details: Burkholderia pseudomallei, BP82, read-out: Minimum inhibitory concentration, B. pseudomallei Bp82

Sequence of A. baumannii PBP2 (D0C8Z9 whole entry): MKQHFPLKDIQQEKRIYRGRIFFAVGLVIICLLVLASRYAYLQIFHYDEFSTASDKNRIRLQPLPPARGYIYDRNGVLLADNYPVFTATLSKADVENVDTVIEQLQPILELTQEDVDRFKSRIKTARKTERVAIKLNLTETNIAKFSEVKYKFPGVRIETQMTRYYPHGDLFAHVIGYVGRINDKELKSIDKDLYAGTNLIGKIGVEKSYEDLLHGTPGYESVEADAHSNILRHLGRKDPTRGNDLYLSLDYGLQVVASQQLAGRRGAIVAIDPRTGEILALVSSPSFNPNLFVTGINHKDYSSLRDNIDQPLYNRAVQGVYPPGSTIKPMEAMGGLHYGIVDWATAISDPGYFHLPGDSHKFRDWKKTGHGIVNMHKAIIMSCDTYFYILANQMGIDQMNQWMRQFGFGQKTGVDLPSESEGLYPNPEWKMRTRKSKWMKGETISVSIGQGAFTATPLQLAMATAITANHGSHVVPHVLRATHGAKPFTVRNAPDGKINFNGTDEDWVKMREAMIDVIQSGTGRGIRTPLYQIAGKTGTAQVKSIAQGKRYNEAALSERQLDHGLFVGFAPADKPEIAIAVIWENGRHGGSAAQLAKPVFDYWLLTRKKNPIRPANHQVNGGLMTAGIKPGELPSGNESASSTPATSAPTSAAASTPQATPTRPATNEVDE

| Structure (SMILES) | EC50 (A. baumannii PBP1a) [µM] | EC50 (A. baumannii PBP2) [µM] | MIC (B. pseudomallei Bp82) [µg/mL] |
| --- | --- | --- | --- |
| O=C(NCCCN1CCN(C(=O)NC(C(=O)N[C@H]2Cc3ccc(F)c(C(=O)O)c3OB2O)c2cc(F)c(O)c(O)c2Cl)C(=O)C1=O)c1ccncc1 (stereo partly drawn) [Example 205, (3R)-3-(2-(2-chloro-5-fluoro-3,4-dihydroxyphenyl)-2-(4-(3-(isonicotinamido)propyl)-2,3-dioxopiperazine-1-carboxamido)acetamido)-7-fluoro-2-hydroxy-3,4-dihydro-2H-benzo[e][1,2]oxaborinine-8-carboxylic acid] | 50 to 250 | 10 to 50 | < 1 |
| O=C(NCCCN1CCN(C(=O)N[C@@H](C(=O)N[C@H]2Cc3ccc(F)c(C(=O)O)c3OB2O)c2cc(F)c(O)c(O)c2Cl)C1=O)c1cccc(O)c1 [Example 255, (R)-3-((R)-2-(2-chloro-5-fluoro-3,4-dihydroxyphenyl)-2-(3-(3-(3-hydroxybenzamido)propyl)-2-oxoimidazolidine-1-carboxamido)acetamido)-7-fluoro-2-hydroxy-3,4-dihydro-2H-benzo[e][1,2]oxaborinine-8-carboxylic acid] | 10 to 50 | 10 to 50 | < 1 |
| O=C(NCCCN1CCN(C(=O)N[C@@H](C(=O)N[C@H]2Cc3ccc(F)c(C(=O)O)c3OB2O)c2cc(F)c(O)c(O)c2Cl)C1=O)Nc1cccc(O)c1 [Example 258, (R)-3-((R)-2-(2-chloro-5-fluoro-3,4-dihydroxyphenyl)-2-(3-(3-(3-(3-hydroxyphenyl)ureido)propyl)-2-oxoimidazolidine-1-carboxamido)acetamido)-7-fluoro-2-hydroxy-3,4-dihydro-2H-benzo[e][1,2]oxaborinine-8-carboxylic acid] | 10 to 50 | < 10 | < 1 |
